Laboratory results as given in publication PMC11310081, “Deep-learning-enabled antibiotic discovery through molecular de-extinction” (Nature Biomedical Engineering, 2024).
Values after ≈ are worked out from the molar mass of the structure shown. “Also recorded” adds a separate entry of the source. Peptide text beside a SMILES is read from it.

Assays:
A. baumannii ATCC 19606 = assay: Skin abscess infection mouse model; format: in vivo, CD-1 mice; conditions: for bacterial count, skin abscess (Panel 6b): CD-1 mice; for Anti-infective activity in skin abscess model, in words: single dose at MIC, compared with untreated control and polymyxin B, n = 6
Description: A. baumannii ATCC 19606 cells were grown in LB medium to an OD600 = 0.5. Cells were washed twice with sterile phosphate-buffered saline (PBS) (pH 7.4, 13,000 r.p.m. for 2 min) and resuspended to a final concentration of 10^6 (A. baumannii cells) colony-forming units per millilitre (c.f.u. ml^−1). Six-week-old female CD-1 mice from Charles River (stock number 18679700-022) were anaesthetized with isoflurane, and their backs were sterilized and shaved. A superficial linear skin abrasion was made with a needle to damage the stratum corneum and upper layer of the epidermis. An aliquot of 20 μl containing the bacterial load resuspended in PBS was inoculated over the scratched area. Two hours after the infection, peptides diluted in water at their MIC value were administered to the infected area, and the untreated mice were inoculated with the same volume of deionized water. Mice were euthanized, and the area of scarified skin was excised 2 days and 4 days post infection, homogenized using a bead beater for 20 min (25 Hz) and then serially diluted tenfold for quantification of colony-forming units. This quantitative method was used as it has been established to accurately reflect the number of bacteria present in a given infected area. MacConkey agar plates were used as A. baumannii colonies appear purple in this medium and can easily be distinguished from other strains. The experiments were performed with six mice per group. All experiments were performed blindly, and no animal subjects were excluded from the analysis. The skin abscess infection mouse model was approved by the University Laboratory Animal Resources from the University of Pennsylvania (protocol 806763). Statistical significance was determined using one-way analysis of variance (ANOVA) followed by Dunnett’s test in log10-transformed data to mitigate the effect of outliers; P values are presented for each group, with all groups being compared to the untreated control group.

K. pneumoniae ATCC 13883 = format: cell-based, Klebsiella pneumoniae; conditions: ATCC 13883, 20 h
Source text: (§1) The following Gram-negative bacteria were used in our study: A. baumannii ATCC 19606, E. coli ATCC 11775, E. coli AIC221 (E. coli MG1655 phnE_2::FRT), E. coli AIC222 (E. coli MG1655 pmrA53 phnE_2::FRT (colistin resistant)), K. pneumoniae ATCC 13883, P. aeruginosa PAO1 and P. aeruginosa PA14. The following Gram-positive bacteria were also used in our study: S. aureus ATCC 12600, S. aureus ATCC BAA-1556 (methicillin-resistant strain), E. faecalis ATCC 700802 (vancomycin-resistant strain) and E. faecium ATCC 700221 (vancomycin-resistant strain). Bacteria were grown from frozen stocks and plated on Luria–Bertani (LB) or Pseudomonas isolation agar plates (P. aeruginosa strains) and incubated overnight at 37 °C. After the incubation period, a single colony was transferred to 5 ml of LB medium, and cultures were incubated overnight (16 h) at 37 °C. The following day, an inoculum was prepared by diluting the overnight cultures 1:100 in 5 ml of the respective media and incubating them at 37 °C until bacteria reached logarithmic phase (OD600 = 0.3–0.5).
(§2) The in vitro antimicrobial activity of the peptides was assessed by using the broth microdilution assay. […] Aqueous solutions of the peptides were added to the plate at concentrations ranging from 1 to 64 μmol l^−1. […] The optical density of the plates was measured at 600 nm using a spectrophotometer. All assays were done as three biological replicates.

[1] = system: E. faecium ATCC 700221 (vancomycin-resistant strain); format: cell-based, Enterococcus faecium; conditions: ATCC 700221, 20 h
Source text: as §1, §2

S. aureus ATCC 12600 = format: cell-based, Staphylococcus aureus; conditions: ATCC 12600, 20 h
Source text: as §1, §2

[2] = system: S. aureus ATCC BAA-1556 (methicillin-resistant strain); format: cell-based, Staphylococcus aureus; conditions: ATCC BAA-1556, 20 h
Source text: as §1, §2

E. coli ATCC 11775 = format: cell-based, Escherichia coli; conditions: ATCC 11775, 20 h
Source text: as §1, §2

E. coli AIC221 = format: cell-based, Escherichia coli; conditions: AIC221, 20 h
Source text: as §1, §2

[3] = system: E. faecalis ATCC 700802 (vancomycin-resistant strain); format: cell-based, Enterococcus faecalis; conditions: ATCC 700802, 20 h
Source text: as §1
as §2, with “All assays were done as three biological replicates.” left out

[4] = A. baumannii ATCC 19606, day 2, replicate 1
[5] = A. baumannii ATCC 19606, day 2, replicate 2
[6] = A. baumannii ATCC 19606, day 2, replicate 3
[7] = A. baumannii ATCC 19606, day 2, replicate 4
[8] = A. baumannii ATCC 19606, day 2, replicate 5
[9] = A. baumannii ATCC 19606, day 2, replicate 6
[10] = A. baumannii ATCC 19606, day 4, replicate 1
[11] = A. baumannii ATCC 19606, day 4, replicate 2
[12] = A. baumannii ATCC 19606, day 4, replicate 3
[13] = A. baumannii ATCC 19606, day 4, replicate 4
[14] = A. baumannii ATCC 19606, day 4, replicate 5
[15] = A. baumannii ATCC 19606, day 4, replicate 6

| Compound | bacterial count, skin abscess (Panel 6b) (A. baumannii ATCC 19606; [4]) | bacterial count, skin abscess (Panel 6b) (A. baumannii ATCC 19606; [5]) | bacterial count, skin abscess (Panel 6b) (A. baumannii ATCC 19606; [6]) | bacterial count, skin abscess (Panel 6b) (A. baumannii ATCC 19606; [7]) | bacterial count, skin abscess (Panel 6b) (A. baumannii ATCC 19606; [8]) | bacterial count, skin abscess (Panel 6b) (A. baumannii ATCC 19606; [9]) | bacterial count, skin abscess (Panel 6b) (A. baumannii ATCC 19606; [10]) | bacterial count, skin abscess (Panel 6b) (A. baumannii ATCC 19606; [11]) | bacterial count, skin abscess (Panel 6b) (A. baumannii ATCC 19606; [12]) | bacterial count, skin abscess (Panel 6b) (A. baumannii ATCC 19606; [13]) | bacterial count, skin abscess (Panel 6b) (A. baumannii ATCC 19606; [14]) | bacterial count, skin abscess (Panel 6b) (A. baumannii ATCC 19606; [15]) | Anti-infective activity in skin abscess model, in words (A. baumannii ATCC 19606) | Minimal inhibitory concentration, K. pneumoniae ATCC133883 (K. pneumoniae ATCC 13883) | Minimal inhibitory concentration, E. faecium ATCC700221-VRE [1] | Minimal inhibitory concentration, S. aureus ATCC12600 (S. aureus ATCC 12600) | Minimal inhibitory concentration, S. aureus ATCC BAA-1556-MRSA [2] | Minimal inhibitory concentration, E. coli ATCC11775 (E. coli ATCC 11775) | Minimal inhibitory concentration, E. coli AIC221 (E. coli AIC221) | Minimal inhibitory concentration, E. faecalis ATCC700802-VRE [3] |
| --- | --- | --- | --- | --- | --- | --- | --- | --- | --- | --- | --- | --- | --- | --- | --- | --- | --- | --- | --- | --- |
| CC[C@H](C)[C@H](NC(=O)[C@H](CO)NC(=O)[C@H](CCCNC(=N)N)NC(=O)[C@H](C)NC(=O)[C@H](Cc1c[nH]cn1)NC(=O)[C@H](CC(C)C)NC(=O)[C@H](CS)NC(=O)[C@H](C)NC(=O)[C@@H](N)CCCNC(=N)N)C(=O)N[C@@H](C)C(=O)N[C@@H](CCCNC(=N)N)C(=O)N[C@@H](CC(C)C)C(=O)N[C@@H](Cc1c[nH]cn1)C(=O)N[C@@H](CCCCN)C(=O)N[C@@H](CCCNC(=N)N)C(=O)N[C@@H](Cc1c[nH]c2ccccc12)C(=O)N[C@@H](CCCNC(=N)N)C(=O)N1CCC[C@H]1C(=O)N[C@H](C(=O)N[C@@H](Cc1c[nH]cn1)C(=O)N[C@@H](CCC(N)=O)C(=O)NCC(=O)N[C@@H](CC(C)C)C(=O)NCC(=O)N[C@@H](CC(C)C)C(=O)N[C@@H](CCCCN)C(=O)O)C(C)C [Mammuthusin-2] (H-RACLHARSIARLHKRWRPVHQGLGLK-OH; N-terminus and C-terminus assumed) | 600000 | 400000 | 800000 | 200000 | 4000000 | 1e+007 | 200000 | 200000 | 800000 | 1200000 | 20000 | 20000 | inhibited the proliferation of the infection for up to 4 days after treatment |  |  |  |  |  |  |  |
| CC[C@H](C)[C@H](NC(=O)[C@@H](N)CC(C)C)C(=O)N[C@H](C(=O)N[C@@H](CS)C(=O)N[C@@H](Cc1ccccc1)C(=O)N[C@@H](Cc1ccccc1)C(=O)N[C@@H](CCCNC(=N)N)C(=O)N[C@@H](CCC(N)=O)C(=O)N[C@@H](CC(C)C)C(=O)N[C@@H](CCCCN)C(=O)N[C@@H](Cc1ccccc1)C(=O)N[C@@H](Cc1c[nH]cn1)C(=O)N[C@@H](Cc1ccccc1)C(=O)O)C(C)C [Megalocerin-1] (H-LIVCFFRQLKFHF-OH; N-terminus and C-terminus assumed) | 800000 | 2000000 | 2000000 | 800000 | 600000 | 1000000 | 1200000 | 1000000 | 400000 | 400000 | 1000000 | 400000 | inhibited the proliferation of the infection for up to 4 days after treatment | 64 µM (≈ 109 µg/mL) | 8 µM (≈ 13.6 µg/mL) |  |  |  |  |  |
| CC[C@H](C)[C@H](N)C(=O)N[C@@H](Cc1ccccc1)C(=O)N[C@@H](CC(C)C)C(=O)N[C@@H](Cc1c[nH]cn1)C(=O)N[C@@H](CC(C)C)C(=O)N[C@@H](CCCCN)C(=O)N[C@H](C(=O)N[C@@H](CC(C)C)C(=O)N[C@@H](CCCCN)C(=O)N[C@H](C(=O)N[C@H](C(=O)N[C@@H](CCCNC(=N)N)C(=O)N[C@@H](CC(C)C)C(=O)N[C@@H](CC(C)C)C(=O)O)[C@@H](C)CC)[C@@H](C)CC)[C@@H](C)CC [Elephasin-2] (H-IFLHLKILKIIRLL-OH; N-terminus and C-terminus assumed) | 200000 | 200000 | 8000000 | 4000000 | 200000 | 400000 | 40000 | 20000 | 800000 | 800000 | 200 | 200 | comparable to that of the widely used antibiotic polymyxin B; also recorded: inhibited the proliferation of the infection for up to 4 days after treatment; also recorded: cleared the infection in some of the mice |  | 1 µM (≈ 1.73 µg/mL) | 1 µM (≈ 1.73 µg/mL) | 1 µM (≈ 1.73 µg/mL) | 16 µM (≈ 27.7 µg/mL) | 2 µM (≈ 3.47 µg/mL) | 8 µM (≈ 13.9 µg/mL) |
| CC(C)C[C@H](NC(=O)CNC(=O)[C@H](CCCNC(=N)N)NC(=O)[C@H](CCCCN)NC(=O)[C@H](CCCNC(=N)N)NC(=O)[C@@H](N)CCCCN)C(=O)N[C@@H](CCCCN)C(=O)N[C@@H](CC(C)C)C(=O)N[C@@H](C)C(=O)N[C@H](C(=O)N[C@@H](C)C(=O)N[C@@H](CC(C)C)C(=O)N[C@@H](CO)C(=O)N[C@@H](CC(C)C)C(=O)N[C@@H](CC(N)=O)C(=O)N[C@@H](CC(N)=O)C(=O)N[C@@H](CCCCN)C(=O)N[C@@H](Cc1ccccc1)C(=O)O)[C@@H](C)O [Mylodonin-2] (H-KRKRGLKLATALSLNNKF-OH; N-terminus and C-terminus assumed) | 200000 | 200000 | 600000 | 200000 | 400000 | 400000 | 2000 | 2000 | 60000 | 80000 | 200 | 200 | comparable to that of the widely used antibiotic polymyxin B; also recorded: inhibited the proliferation of the infection for up to 4 days after treatment; also recorded: cleared the infection in some of the mice |  |  |  |  |  |  |  |
